Source: patent US8952024B2, “Herbicidal pyrimidone derivatives” (E I du Pont de Nemours and Company, priority 2009, dated 2015)

Experiments:
Assay type in all cases: in vivo
[1] = test system: barnyardgrass (Echinochloa crus-galli); assay: Test A pre-/postemergence plant response
Method in brief: (§1)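 Seeds planted in loam soil/sand blend; test chemicals in non-phytotoxic solvent mixture with surfactant applied as directed soil spray preemergence and, concurrently, postemergence to plants 2–10 cm tall at one- to two-leaf stage. Greenhouse ~10 days; visual injury vs untreated controls, 0 (no effect) to 100 (complete control).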

[2] = test system: corn (Zea mays); assay: Test A pre-/postemergence plant response
Method in brief: as §1

[3] = test system: giant foxtail (Setaria faberii); assay: Test A pre-/postemergence plant response
Method in brief: as §1

[4] = test system: large crabgrass (Digitaria sanguinalis); assay: Test A pre-/postemergence plant response
Method in brief: as §1

[5] = test system: morningglory (Ipomoea spp.); assay: Test A pre-/postemergence plant response
Method in brief: as §1

[6] = test system: pigweed (Amaranthus retroflexus); assay: Test A pre-/postemergence plant response
Method in brief: as §1

[7] = test system: velvetleaf (Abutilon theophrasti); assay: Test A pre-/postemergence plant response
Method in brief: as §1

[8] = test system: wheat (Triticum aestivum); assay: Test A pre-/postemergence plant response
Method in brief: as §1

[9] = test system: winter barley (Hordeum vulgare); assay: Test B postemergence plant response; conditions: for Barley plant response rating (0 to 100 scale): 62 g ai/ha, 0 is no effect, 13 to 15 days
Method in brief: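 Plants at the 1- to 4-leaf stage (2 to 18 cm tall), grown in pots of peat moss/vermiculite medium with wetting agent and starter nutrients, received postemergence applications of test chemicals. After 13 to 15 days in a greenhouse, injury was rated visually against untreated controls on a 0 (no effect) to 100 (complete control) scale.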

[10] = test system: barnyardgrass (Echinochloa crus-galli); assay: Test B flooded paddy test; conditions: for Plant response rating, Flood, Barnyardgrass: 250 g ai/ha, flooded paddy test, visual rating on 0 to 100 scale (0 no effect, 100 complete control) after 13 to 15 days; for Plant response rating, Barnyardgrass: Flood (flooded paddy test), 13 to 15 days
Method in brief: (§2)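 Each compound is added to standing floodwater (3 cm above soil, maintained) in pots of 2-leaf-stage plants; greenhouse exposure lasts 13–15 d before visual comparison with controls on a 0–100 control scale.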

[11] = test system: ducksalad (Heteranthera limosa); assay: Test B flooded paddy test; conditions: for Plant response rating, Flood, Ducksalad: 250 g ai/ha, flooded paddy test, visual rating on 0 to 100 scale (0 no effect, 100 complete control) after 13 to 15 days; for Plant response rating, Ducksalad: Flood (flooded paddy test), 13 to 15 days
Method in brief: as §2

[12] = test system: rice (Oryza sativa); assay: Test B flooded paddy test; conditions: for Plant response rating, Flood, Rice: 250 g ai/ha, flooded paddy test, visual rating on 0 to 100 scale (0 no effect, 100 complete control) after 13 to 15 days; for Plant response rating, Rice: Flood (flooded paddy test), 13 to 15 days
Method in brief: as §2

[13] = test system: umbrella sedge (Cyperus difformis); assay: Test B flooded paddy test; conditions: for Plant response rating, Flood, Sedge, Umbrella: 250 g ai/ha, flooded paddy test, visual rating on 0 to 100 scale (0 no effect, 100 complete control) after 13 to 15 days; for Plant response rating, Sedge, Umbrella: Flood (flooded paddy test), 13 to 15 days
Method in brief: as §2

[14] = Postemergence, 125 g ai/ha, 0 to 100 scale where 0 is no effect and 100 is complete control
[15] = Postemergence, 500 g ai/ha, 0 to 100 scale, 0 = no effect, 100 = complete control, approx. ten days
[16] = Preemergence, 125 g ai/ha, 0 to 100 scale, 0 = no effect, 100 = complete control
[17] = Preemergence, 500 g ai/ha, visual injury, 0 to 100 scale (0 no effect, 100 complete control), approx. ten days
[18] = 31 g ai/ha, postemergence, scale 0 to 100, 0 is no effect, 100 is complete control
[19] = postemergence, 100 is complete control
[20] = Postemergence, 125 g ai/ha, scale 0 to 100 (0 no effect, 100 complete control)
[21] = Postemergence, 250 g ai/ha, scale 0 to 100 (0 no effect, 100 complete control)
[22] = 62 g ai/ha, scale of 0 to 100 where 0 is no effect and 100 is complete control
[23] = 125 g ai/ha, scale 0 to 100, 0 is no effect, 100 is complete control
[24] = Flood, 31 g ai/ha, scale 0 to 100 (0 no effect, 100 complete control)

CCCn1c(-c2ccc(F)cc2)ncc(C(=O)C2=C(O)CCCC2=O)c1=O [Compound 102]
20: Plant response rating, Corn [2, 15] | Plant response rating, Rice [12, 23]
30: Plant response rating, Barley [9, 20] | Ducksalad plant response rating [11, 24] | Sedge, Umbrella plant response rating [13, 24]
100: Plant response rating, Foxtail, Giant [3, 17] | Plant response rating, Crabgrass, Large [4, 15] | Plant response rating, Crabgrass, Large [4, 17] | Plant response rating, Morningglory [5, 14] | Plant response rating, Morningglory [5, 15] | Plant response rating, Pigweed [6, 14] | Plant response rating, Pigweed [6, 15] | Plant response rating, Pigweed [6, 17] | Plant response rating, Velvetleaf [7, 14] | Plant response rating, Velvetleaf [7, 15] | Plant response rating, Velvetleaf [7, 17]
40: Plant response rating, Barnyardgrass [1, 16] | Plant response rating, Ducksalad [11, 22] | Plant response rating, Sedge, Umbrella [13, 22]
80: Plant response rating, Barnyardgrass [1, 14] | Plant response rating, Foxtail, Giant [3, 14] | Plant response rating, Foxtail, Giant [3, 16] | Plant response rating, Crabgrass, Large [4, 16] | Plant response rating, Morningglory [5, 16] | Plant response rating, Morningglory [5, 17] | Plant response rating, Velvetleaf [7, 16] | Plant response rating, Ducksalad [11, 23]
0: Plant response rating, Corn [2, 14] | Plant response rating, Corn [2, 16] | Plant response rating, Corn [2, 17] | Plant response rating, Wheat [8, 14] | Plant response rating, Wheat [8, 16] | Plant response rating, Wheat [8, 17] | Plant response rating, Barley [9, 18]
15: Barnyardgrass plant response rating [10, 24] | Plant response rating, Rice [12, 22]
90: Plant response rating, Barnyardgrass [1, 15] | Plant response rating, Barnyardgrass [1, 17] | Plant response rating, Foxtail, Giant [3, 15] | Plant response rating, Crabgrass, Large [4, 14]
85: Plant response rating, Flood, Ducksalad [11]
60: Plant response rating, Pigweed [6, 16] | Plant response rating, Barley [9, 21] | Plant response rating, Barnyardgrass [10, 22] | Plant response rating, Barnyardgrass [10, 23]
70: Plant response rating, Flood, Barnyardgrass [10]
35: Plant response rating, Flood, Rice [12]
75: Plant response rating, Flood, Sedge, Umbrella [13]
10: Plant response rating, Wheat [8, 15] | Barley plant response rating (0 to 100 scale) [9, 19] | Rice plant response rating [12, 24]
65: Plant response rating, Sedge, Umbrella [13, 23]

COCC(C)n1c(-c2ccccc2)ncc(C(=O)C2=C(O)CCCC2=O)c1=O (stereo not drawn) [Compound 107]
100: Plant response rating, Crabgrass, Large [4, 17] | Plant response rating, Morningglory [5, 14] | Plant response rating, Morningglory [5, 15] | Plant response rating, Morningglory [5, 17] | Plant response rating, Pigweed [6, 14] | Plant response rating, Pigweed [6, 15] | Plant response rating, Pigweed [6, 16] | Plant response rating, Pigweed [6, 17] | Plant response rating, Velvetleaf [7, 14] | Plant response rating, Velvetleaf [7, 15] | Plant response rating, Velvetleaf [7, 16] | Plant response rating, Velvetleaf [7, 17]
90: Plant response rating, Barnyardgrass [1, 14] | Plant response rating, Barnyardgrass [1, 15] | Plant response rating, Barnyardgrass [1, 17] | Plant response rating, Foxtail, Giant [3, 15] | Plant response rating, Foxtail, Giant [3, 17] | Plant response rating, Crabgrass, Large [4, 15] | Plant response rating, Crabgrass, Large [4, 16]
10: Plant response rating, Wheat [8, 15]
60: Plant response rating, Foxtail, Giant [3, 16] | Plant response rating, Flood, Barnyardgrass [10] | Plant response rating, Sedge, Umbrella [13, 22]
25: Plant response rating, Barley [9, 20]
5: Barley plant response rating (0 to 100 scale) [9, 19]
85: Plant response rating, Flood, Sedge, Umbrella [13]
40: Plant response rating, Barnyardgrass [1, 16] | Plant response rating, Barnyardgrass [10, 22] | Plant response rating, Flood, Ducksalad [11]
50: Plant response rating, Corn [2, 15]
45: Plant response rating, Flood, Rice [12]
30: Plant response rating, Barley [9, 21]
80: Plant response rating, Crabgrass, Large [4, 14]
20: Plant response rating, Corn [2, 16] | Plant response rating, Rice [12, 22]
70: Plant response rating, Foxtail, Giant [3, 14] | Plant response rating, Morningglory [5, 16]
0: Plant response rating, Corn [2, 14] | Plant response rating, Wheat [8, 14] | Plant response rating, Wheat [8, 16] | Plant response rating, Wheat [8, 17] | Plant response rating, Barley [9, 18] | Plant response rating, Ducksalad [11, 22]

COCCn1c(-c2cccc(C)c2)ncc(C(=O)C2=C(O)CCCC2=O)c1=O [Compound 117]
20: Plant response rating, Corn [2, 14] | Plant response rating, Corn [2, 17] | Plant response rating, Foxtail, Giant [3, 16] | Plant response rating, Wheat [8, 17]
60: Plant response rating, Crabgrass, Large [4, 16]
100: Plant response rating, Crabgrass, Large [4, 15] | Plant response rating, Crabgrass, Large [4, 17] | Plant response rating, Morningglory [5, 14] | Plant response rating, Morningglory [5, 15] | Plant response rating, Pigweed [6, 14] | Plant response rating, Pigweed [6, 15] | Plant response rating, Pigweed [6, 17] | Plant response rating, Velvetleaf [7, 14] | Plant response rating, Velvetleaf [7, 15] | Plant response rating, Flood, Ducksalad [11]
80: Plant response rating, Barnyardgrass [1, 14] | Plant response rating, Foxtail, Giant [3, 15] | Plant response rating, Crabgrass, Large [4, 14]
70: Plant response rating, Foxtail, Giant [3, 14] | Plant response rating, Foxtail, Giant [3, 17] | Plant response rating, Velvetleaf [7, 16]
15: Plant response rating, Flood, Rice [12]
65: Plant response rating, Barnyardgrass [10, 22]
0: Plant response rating, Corn [2, 16] | Plant response rating, Wheat [8, 14] | Plant response rating, Wheat [8, 16] | Plant response rating, Barley [9, 18] | Barley plant response rating (0 to 100 scale) [9, 19] | Plant response rating, Barley [9, 20] | Plant response rating, Barley [9, 21] | Plant response rating, Rice [12, 22]
95: Plant response rating, Flood, Sedge, Umbrella [13] | Plant response rating, Sedge, Umbrella [13, 22]
30: Plant response rating, Wheat [8, 15]
90: Plant response rating, Barnyardgrass [1, 15] | Plant response rating, Barnyardgrass [1, 17] | Plant response rating, Morningglory [5, 17] | Plant response rating, Pigweed [6, 16] | Plant response rating, Velvetleaf [7, 17]
75: Plant response rating, Flood, Barnyardgrass [10]
50: Plant response rating, Barnyardgrass [1, 16] | Plant response rating, Corn [2, 15]
40: Plant response rating, Morningglory [5, 16]
